In patent publication US9237744B2, “Preservative solution for cells, tissues and organs containing rare sugar and preservative method thereof” (NATIONAL UNIVERSITY CORPORATION KAGAWA UNIVERSITY, priority 2004, dated 2016):

Assays:
MPO = assay: Renal ischemic reperfusion model, MPO as index of accumulation of leukocytes; assay type: in vivo, rat; conditions: 400 mg/kg intravenously 30 minutes before renal ischemia; peak after 6 hours of reperfusion (FIG. 13)
Experimental: (§1) Object: male rats with a body weight of 200˜250 g Experimental method: After anesthetization of a rat with nenbutal, a renal ischemic model is prepared. Renal ischemic model: After extraction of the right kidney, the left kidney blood vessel is clamped for 45 minutes. 400 mg/kg of the solution is intravenously administered to the D-allose group 30 minutes before the renal ischemia. A raw feed is administered to the control group. Estimation: Change with time of a CINC-1 protein amount and MPO as an index of accumulation of leukocytes after ischemic reperfusion

HFB (human fibroblast) = assay: Survival rate of cells after freeze-preservation at −80° C. for 24 hours, trypan blue (Example 1); assay type: cell-based; conditions: concentration 50 mM (foregoing studies)
Experimental: 1. Cells used: Hela (human cervical cancer), OVCAR-3 (human ovarian cancer), HuH-7 (human liver cancer), HaCaT (human skin keratinocyte), HFB (human fibroblast) and NIH3T3 (mouse fibroblast). Saccharides D-allose and the like were added to culture medium, Cell Banker (commercially available preservative solution) and DMSO at concentrations of 25 mM and 50 mM. Monosaccharides such as D-glucose, D-fructose, D-mannose and D-galactose which are present in nature in large quantities and D-allose, D-psicose, D-altrose, allitol, D-talitol and L-sorbose as rare sugars were used. Further, trehalose as disaccharide was used. The cells were preserved for 24 hours by being frozen at −80° C. 1) Survival rate of cells: One day later, the cells were thawed, and the survival rate was estimated by trypan blue dying method.

[1] = tested on: NIH3T3, OVCAR-3, HaCaT and HFB cells; assay: Cell preservation with DMSO plus rare sugar, growth after thawing (Example 1); assay type: cell-based, human, mouse; conditions: DMSO decreased to 1%, sub-optimal condition (FIG. 4, FIG. 5)
Experimental: 1. Cells used: Hela (human cervical cancer), OVCAR-3 (human ovarian cancer), HuH-7 (human liver cancer), HaCaT (human skin keratinocyte), HFB (human fibroblast) and NIH3T3 (mouse fibroblast). Saccharides D-allose and the like were added to culture medium, Cell Banker (commercially available preservative solution) and DMSO at concentrations of 25 mM and 50 mM. Monosaccharides such as D-glucose, D-fructose, D-mannose and D-galactose which are present in nature in large quantities and D-allose, D-psicose, D-altrose, allitol, D-talitol and L-sorbose as rare sugars were used. Further, trehalose as disaccharide was used. The cells were preserved for 24 hours by being frozen at −80° C. 2) Cell growth: One day later, the cells were thawed, and 0.25˜2×10^4 cells/well were spread on 96-well plate with 0.1 mL medium. After a prescribed period of time, the cell growth was measured by MTT assay. 4) Since DMSO (dimethyl sulfoxide) is also commonly added to culture medium at a rate of 10% and used in freeze-preservation, the effect of rare sugar was examined in the system of DMSO. The difference in effect of rare sugar is hardly observed in a system using 10% DMSO, the effect of cell preservation was comparatively examined under a sub-optimal condition by decreasing the concentration of DMSO to 1%. NIH3T3, OVCAR-3, HaCaT and HFB cells and the like were used. […]

human sperms [2] = assay: Movement rate of frozen and thawed sperms, visual observation with Makler Counting Chamber; assay type: cell-based; conditions: KS-II solution with D-allose alone versus glucose only, liquid nitrogen 1 month, P=0.0469 (FIG. 16)
Experimental: (§2) Semens of ten healthy men who were 24 to 44 years old (mean: 29.9) with normal semens were used.
(§3) The semen was manually collected after abstinence for 3 to 5 days, liquefied at room temperature, and then washed and concentrated by a 80% Percoll liquid agitation density gradient method. The resulting sperm turbid solution (0.2 ml) and the freeze-preservative solution were mixed in equal amounts, and the mixture was charged into a freezing tube (serum tube, Sumitomo Bakelite), frozen by a liquid nitrogen vapor freezing method, and then preserved in a liquid nitrogen tank. The freeze-preservative solution (refer to FIG. 14) was used such that the mixing amounts of D-allose and D-glucose were changed (A group=1:0, B group=3:1, C group=1:1, D group=1:3, E group=0:1) without changing the number of moles of the sugar in a KS-II sperm preservative solution. One month later, the frozen sperms were thawed in warm water (30° C.) with shaking. Further, for removal of the freeze-preservative solution and reconcentration, the density gradient centrifugation method was conducted, and the resulting sperm floating solution was examined.
(§4) As the examination method, the sperm movement rate was measured by a visual observation method with Makler Counting Chamber and C-IMAGING SYSTEMS, and the survival rate was measured by 0.5% Eosin Y dying. […]

rat kidney = conditions: pre-administration, cited from earlier work
[3] = tested on: Hela, OVCAR-3, HaCaT, HFB and NIH3T3 cells; assay: Survival rate of cells after freeze-preservation at high sugar concentration, trypan blue (Example 2); assay type: cell-based, human, mouse
Experimental: 1. Cells used: Hela (human cervical cancer), OVCAR-3 (human ovarian cancer), HaCaT (human skin keratinocyte), HFB (human fibroblast) and NIH3T3 (mouse fibroblast). Saccharides D-allose and the like were added to culture medium, Cell Banker (commercially available preservative solution) and DMSO at concentrations of 0.2, 0.4, 0.6, 0.8 and 1M. Monosaccharides such as D-glucose, D-fructose, D-mannose and D-galactose which are present in nature in large quantities and D-allose, D-altrose, D-psicose, L-psicose, D-sorbose, L-sorbose, D-tagatose, L-tagatose and L-fructose as rare sugars were used. Further, trehalose as disaccharide was used. The cells frozen with D-allose were freeze-preserved at −80° C. and in liquid nitrogen for 24 hours, 1 week and 4 weeks. 1) Survival rate of cells: The cells were thawed, and the survival rate was estimated by a trypan blue dying method.

[4] = Murata et al., J. Bioengineering and Bioscience, 2003; cited from earlier work
CINC-1 = assay: Renal ischemic reperfusion model, CINC-1 protein amount; assay type: in vivo, rat; conditions: 400 mg/kg intravenously 30 minutes before renal ischemia, 45 minutes clamp (FIG. 12)
Experimental: as §1

human sperms [5] = assay: Survival rate of frozen and thawed sperms, 0.5% Eosin Y dying; assay type: cell-based; conditions: freeze-preservative solution using D-allose, liquid nitrogen 1 month (FIG. 17)
Experimental: as §2, §3, §4

O=C[C@H](O)[C@H](O)[C@H](O)[C@H](O)CO [D-allose]
MPO as the index of accumulation of leukocytes (MPO): inhibited
improvement effect as preservative agent (HFB (human fibroblast)): no great improvement effect was obtained
effect of preservation with DMSO [1]: improved
movement rate of thawed sperms (human sperms [2]): high in movement rate of thawed sperms in the eight of nine cases
activation and floating of neutrophils after ischemic reperfusion (rat kidney; rat kidney (WO 03/097820)): inhibits
functional disorder of the kidney (rat kidney; rat kidney ischemic reperfusion (WO 03/097820)): decreases
cell survival rate after thawing in comparison with other rare sugars ([3]; 0, 0.2, 0.4, 0.6, 0.8 and 1M, comparison under way, tendency): the highest
survival rate of cells ([3]; D-allose added to 10% DMSO and Cell Banker, compared with DMSO and Cell Banker): the higher the concentration of D-allose, the lower the survival rate of cells
optimum preservation temperature ([3]; D-allose-containing freeze-preservative agent): −80 °C
survival rate of cells with extended time of freeze-preservation ([3]; freeze-preservation extended by one month): not changed so much
number of cells survived (trypan blue dying) ([3]; sugar-containing medium in comparison with medium alone (FIG. 7)): large
survival rate by temperature of freeze-preservation ([3]; −80° C. versus liquid nitrogen): much higher
antioxidation activity [4]: proved to have the antioxidation activity
CINC-1 protein amount after ischemic reperfusion (CINC-1): significantly decreased
survival rate of thawed sperms (human sperms [5]): did not show a clear effect
